Tested on: Pseudomonas aeruginosa
Type: in vivo
Settings: 100 μg/mouse i.p., twenty-four hours later infection; blood fifteen hours after bacteria; FIG. 19
Method: Twenty-four hours later, the mice were infected with 3.0×10^10 CFU/mL Pseudomonas aeruginosa. Fifteen hours after administration of the bacteria, blood was collected from the heart using an injection with a needle tip containing a small amount of heparin, and 200 μL of whole blood was then inoculated on a common agar medium. Thereafter, it was incubated in an incubator for 16 hours. Subsequently, the number of colonies on the medium was counted.
When there were a large number of cells, whole blood was diluted with a normal saline solution by a factor of 10, 100, 1000 or 10000, and the thus diluted solution was inoculated on a common agar medium.

SMILES: CCCCCCCCCC(CCCCCCCCC)CC(=O)OCC1O[C@H](O[C@H]2OC(COC(=O)CC(CCCCCCCCC)CCCCCCCCC)[C@@H](O)C(O)C2O)C(O)C(O)[C@@H]1O (stereo partly drawn) [Example 9, 6,6′-bis-O-(3-nonyldodecanoyl)-α,α′-trehalose]
- Pseudomonas aeruginosa cells in mouse blood (colonies): not detected

Reference: patent US8741871B2, “Trehalose compound, method for producing same, and pharmaceutical product containing the compound” (priority 2008, dated 2014)
